Experiments:
[1] = Test to study anti-oxidizing capability using chemiluminescence (Photochem Analytic Jena); type: biochemical; conditions: quantity of sample needed for activity equivalent to 1 μg Trolox, superoxide anion trapping
Method: This test is used to determine the anti-oxidizing capability of the molecules. It is a method which generates free radicals via photochemical signal. The intensity of oxidation is 1000 times higher than obtained under normal conditions.
Detection is performed using chemiluminescence. This allows evaluation of water-soluble and liposoluble antioxidant molecules or extracts
The results are expressed in equivalent quantity of vitamin C or Trolox (6-hydroxy-2,5,7,8-tetramethylchroman-2-carboxylic acid) respectively. Sensitivity is in the order of one nanomole.
The anti-oxidizing activity studied in this test represents the capability of specifically trapping superoxide anions by chemiluminescence.
The quantified results are expressed in Trolox equivalent (standard) or in “μg of product per 1 μg of Trolox”. This means that a quantity x of sample is needed to obtain activity equivalent to the activity detected with 1 μg of standard. It is the antioxidizing power in relation to a reference; this avoids having to take into account the concentrations tested.
The superoxide radical: O2^∘^− is generated by photochemical reaction: L+hv(UV)+O2→L*O2→L^∘^++O2^∘^− • L*: luminol in the excited state L^∘+: luminol radical Signal Detection
Part of the superoxide anions are inhibited by the antioxidants. The remaining free radicals are quantified by chemiluminescence. L^∘^++O2^∘^−→N2+AP*^2−→AP^2−+hv (luminescence)
AP*^2−: aminophthalate in the excited state

B16-F10 cells = assay: Assay of melanin in B16-F10 cells (colorimetric, α-MSH stimulated); type: cell-based, murine; conditions: 0.1 μM α-MSH
Method: It is a test to measure the synthesis of melanin by colorimetric assay on a murine melanoma cell line: line B16-F10. With this test it is possible to evaluate the depigmenting or propigmenting property of active ingredients.
The B16-F10 cells were seeded in 96-well plates in DMEM medium supplemented with FCS (foetal calf serum), and incubated 24 h at 37° C., 5% CO2. The cells were stimulated with 0.1 μM α-MSH (to stimulate melanin synthesis, the observed stimulation being about 150%) and treated 72 h with the active ingredients to be assayed. Each concentration of active ingredient was assayed at least in triplicate. Total melanin and intracellular melanin dissolved in lysis buffer were assayed by absorbance read-off at 405 nm. The total proteins were assayed in the lysate and the results expressed in mg melanin/mg proteins. Percentage activity was calculated as follows: […]
A negative value indicates inhibition of the melanin synthesis and translates depigmenting activity of the compound, whereas a positive value indicates induced melanin synthesis and translates a propigmenting property of the molecule.
• B16-F10 cell lines between P10 and P20 (murine melanocytes) (ATCC, CRL-6475); • reagents: DMEM without Phenol Red (GIBCOBRL, 118800-028), 200 mM glutamax-I supplement (GIBCOBRL, 35050-038), glucose (SIGMA, G7021), PBS (GIBCOBRL, 14190-094), foetal calf serum (Invitrogen, 10270-098), trypsin-EDTA (GIBCOBRL, 25300-054), NaOH (Sigma, S8045-500G), DMSO (Sigma, 471267-11), Nle, Phe-Melanocyte Stimulating Hormone (Sigma, M-8764), melanin (Sigma, M-0418), BCA-COPPER (SIGMA, B9643 and C2284), BSA (SIGMA, P0914) B) Test to Study Anti-Oxidizing Capability Using Chemiluminescence (Photochem Analytic Jena) Principle

[2] = Log P (octanol/water partition coefficient); type: physicochemical
Description: Log P, also called Log Kow, is a measurement of the differential solubility of chemical compounds in two solvents (octanol/water partition coefficient).
Log P is equal to the logarithm of the ratio of the concentrations of the examined substance in octanol and in water. Log P=Log(Coct/Cwater). With this value it is possible to assess the hydrophilic or hydrophobic (lipophilic) nature of a molecule. If Log P is positive and very high, this means that the molecule under consideration is much more soluble in octanol than in water, which reflects its lipophilic nature, and conversely. A value of Log P=0 means that the molecule is distributed equally between the two phases and Coct=Cwater (C. Hansch, J. F. Quinlan, G. L. Lawrence, Linear free energy relationship between partition coefficients and the aqueous solubility of organic liquids, J. Org. Chem., 33 (1968), 347-350; C. Hansch, A. Leo, Exploring QSAR—Fundamentals and Applications in Chemistry and Biology, American Chemical Society, Washington, 1995; J. Sangster, Octanol—Water Partition Coefficients: Fundamentals and Physical Chemistry, Wiley, Chichester, 1997; W. Jorgensen, E. Duffy, Advanced Drug Delivery Reviews, (54), 2002, 355-366).

[3] = Mus musculus, B16-F10, 72 h, negative = inhibition, positive = stimulation, read-out: Melanin synthesis on B16

logP [2]	melting point [°C]	Compound	also measured
–	–	CN1C2=C(C(=O)CC(C)(C)C2)C(c2ccc(O)c(O)c2)C2=C1CC(C)(C)CC2=O [Example 4, 9-(3,4-dihydroxyphenyl)-3,3,6,6,10-pentamethyl-3,4,6,7,9,10-hexahydroacridine-1,8(2H,5H)-dione]	μg sample per 1 μg of Trolox [1]: 0.017 μg sample per 1 μg of Trolox
–	–	CN1C2=C(C(=O)CC(c3ccccc3)C2)C(c2ccc(O)c(O)c2)C2=C1CC(c1ccccc1)CC2=O (stereo not shown) [Example 5, 9-(3,4-dihydroxyphenyl)-10-methyl-3,6-diphenyl-3,4,6,7,9,10-hexahydroacridine-1,8(2H,5H)-dione]	μg sample per 1 μg of Trolox [1]: 0.05 μg sample per 1 μg of Trolox
–	–	CCCCCCCCCCN1C2=C(C(=O)CC(c3ccccc3)C2)C(c2ccc(O)c(O)c2)C2=C1CC(c1ccccc1)CC2=O (stereo not shown) [Example 6, 10-decyl-9-(3,4-dihydroxyphenyl)-3,6-diphenyl-3,4,6,7,9,10-hexahydroacridine-1,8(2H,5H)-dione]	μg sample per 1 μg of Trolox [1]: 0.04 μg sample per 1 μg of Trolox
1.49	309.8	COc1cc(C2C3=C(CC(C)(C)CC3=O)NC3=C2C(=O)CC(C)(C)C3)ccc1O [Example 10, 9-(4-hydroxy-3-methoxyphenyl)-3,3,6,6-tetramethyl-3,4,6,7,9,10-hexahydroacridine-1,8(2H,5H)-dione]	activation at 100 µM (B16-F10 cells; [3]): 29%
1.72	–	COc1cc(C2C3=C(CC(C)(C)CC3=O)N(C)C3=C2C(=O)CC(C)(C)C3)ccc1O [Example 11, 9-(4-hydroxy-3-methoxyphenyl)-3,3,6,6,10-pentamethyl-3,4,6,7,9,10-hexahydroacridine-1,8(2H,5H)-dione]	activation at 100 µM (B16-F10 cells; [3]): 47%
2.06	–	CCN1C2=C(C(=O)CC(C)(C)C2)C(c2ccc(O)c(OC)c2)C2=C1CC(C)(C)CC2=O [Example 12, 10-ethyl-9-(4-hydroxy-3-methoxyphenyl)-3,3,6,6-tetramethyl-3,4,6,7,9,10-hexahydroacridine-1,8(2H,5H)-dione]	activation at 50 µM (B16-F10 cells; [3]): 72%
2.55	259.5	CCCN1C2=C(C(=O)CC(C)(C)C2)C(c2ccc(O)c(OC)c2)C2=C1CC(C)(C)CC2=O [Example 13, 9-(4-hydroxy-3-methoxyphenyl)-3,3,6,6-tetramethyl-10-propyl-3,4,6,7,9,10-hexahydroacridine-1,8(2H,5H)-dione]	activation at 50 µM (B16-F10 cells; [3]): 43%
2.97	–	CCCCN1C2=C(C(=O)CC(C)(C)C2)C(c2ccc(O)c(OC)c2)C2=C1CC(C)(C)CC2=O [Example 14, 10-butyl-9-(4-hydroxy-3-methoxyphenyl)-3,3,6,6-tetramethyl-3,4,6,7,9,10-hexahydroacridine-1,8(2H,5H)-dione]	activation at 20 µM (B16-F10 cells; [3]): 45%
3.38	194.5	CCCCCN1C2=C(C(=O)CC(C)(C)C2)C(c2ccc(O)c(OC)c2)C2=C1CC(C)(C)CC2=O [Example 15, 9-(4-hydroxy-3-methoxyphenyl)-3,3,6,6-tetramethyl-10-pentyl-3,4,6,7,9,10-hexahydroacridine-1,8(2H,5H)-dione]	activation at 50 µM (B16-F10 cells; [3]): 42%
3.8	177.7	CCCCCCN1C2=C(C(=O)CC(C)(C)C2)C(c2ccc(O)c(OC)c2)C2=C1CC(C)(C)CC2=O [Example 16, 10-hexyl-9-(4-hydroxy-3-methoxyphenyl)-3,3,6,6-tetramethyl-3,4,6,7,9,10-hexahydroacridine-1,8(2H,5H)-dione]	–
4.22	154.8	CCCCCCCN1C2=C(C(=O)CC(C)(C)C2)C(c2ccc(O)c(OC)c2)C2=C1CC(C)(C)CC2=O [Example 17, 10-heptyl-9-(4-hydroxy-3-methoxyphenyl)-3,3,6,6-tetramethyl-3,4,6,7,9,10-hexahydroacridine-1,8(2H,5H)-dione]	activation at 20 µM (B16-F10 cells; [3]): -68%
4.63	154.2	CCCCCCCCN1C2=C(C(=O)CC(C)(C)C2)C(c2ccc(O)c(OC)c2)C2=C1CC(C)(C)CC2=O [Example 18, 9-(4-hydroxy-3-methoxyphenyl)-3,3,6,6-tetramethyl-10-octyl-3,4,6,7,9,10-hexahydroacridine-1,8(2H,5H)-dione]	activation at 5 µM (B16-F10 cells; [3]): -59%
5.05	127	CCCCCCCCCN1C2=C(C(=O)CC(C)(C)C2)C(c2ccc(O)c(OC)c2)C2=C1CC(C)(C)CC2=O [Example 19, 9-(4-hydroxy-3-methoxyphenyl)-3,3,6,6-tetramethyl-10-nonyl-3,4,6,7,9,10-hexahydroacridine-1,8(2H,5H)-dione]	activation at 5 µM (B16-F10 cells; [3]): -42%
5.89	118.9	CCCCCCCCCCCN1C2=C(C(=O)CC(C)(C)C2)C(c2ccc(O)c(OC)c2)C2=C1CC(C)(C)CC2=O [Example 20, 9-(4-hydroxy-3-methoxyphenyl)-3,3,6,6-tetramethyl-10-undecyl-3,4,6,7,9,10-hexahydroacridine-1,8(2H,5H)-dione]	activation at 5 µM (B16-F10 cells; [3]): -57%
3.46	–	COc1cc(C2C3=C(CC(C)(C)CC3=O)N(Cc3ccccc3)C3=C2C(=O)CC(C)(C)C3)ccc1O [Example 21, 10-benzyl-9-(4-hydroxy-3-methoxyphenyl)-3,3,6,6-tetramethyl-3,4,6,7,9,10-hexahydroacridine-1,8(2H,5H)-dione]	activation at 100 µM (B16-F10 cells; [3]): 48%
3.74	–	COc1cc(C2C3=C(CC(C)(C)CC3=O)N(CCc3ccccc3)C3=C2C(=O)CC(C)(C)C3)ccc1O [Example 22, 9-(4-hydroxy-3-methoxyphenyl)-3,3,6,6-tetramethyl-10-phenethyl-3,4,6,7,9,10-hexahydroacridine-1,8(2H,5H)-dione]	–
4.15	–	COc1cc(C2C3=C(CC(C)(C)CC3=O)N(CCCc3ccccc3)C3=C2C(=O)CC(C)(C)C3)ccc1O [Example 23, 9-(4-hydroxy-3-methoxyphenyl)-3,3,6,6-tetramethyl-10-(3-phenylpropyl)-3,4,6,7,9,10-hexahydroacridine-1,8(2H,5H)-dione]	activation at 10 µM (B16-F10 cells; Mus musculus, B16-F10, at 10 μM, 72 h, negative = inhibition, positive = stimulation, read-out: Melanin synthesis on B16): -37%
5.32	–	COc1cc(C2C3=C(CC(C)(C)CC3=O)N(CC(c3ccccc3)c3ccccc3)C3=C2C(=O)CC(C)(C)C3)ccc1O [Example 24, 10-(2,2-diphenylethyl)-9-(4-hydroxy-3-methoxyphenyl)-3,3,6,6-tetramethyl-3,4,6,7,9,10-hexahydroacridine-1,8(2H,5H)-dione]	activation at 5 µM (B16-F10 cells; [3]): -37%
–	–	Nle, Phe-Melanocyte Stimulating Hormone [α-MSH, reference compound]	Stimulation of melanin synthesis (B16-F10 cells; B16-F10 cells): about 150%

Source: patent US9493421B2, “Acridinedione derivatives for treating pigmentation disorders and ageing of the skin” (PIERRE FABRE DERMO-COSMETIQUE, priority 2011, dated 2016)
